What all share (assay type): cell-based
The subject of one experiment is HTT mRNA. Briefly: Splicing RT-qPCR assay, HTT canonical (CJ) and alternative (AJ) junction mRNA. To be noted: Homo sapiens, A673 or K562 cells, 24 hours treatment; for pIC50: decrease in CJ mRNA; for AC50: increase in AJ mRNA. Put shortly:
(§1)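 Compound-treated A673 or K562 cells (11-point 3-fold dilution, top dose 10 uM final, DMSO ≤0.25%) were incubated for 24 h at 37° C. Lysates underwent one-step RT-qPCR for canonical and alternative-exon junction isoforms. Normalization used PPIA for A673 and GAPDH or GUSB for K562.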
For orientation: Real-time PCR tracks product formation cycle by cycle.

The subject of the next experiment is MYB mRNA. As to the kind of experiment: Splicing RT-qPCR assay, MYB canonical (CJ) and alternative (AJ) junction mRNA. To be noted: Homo sapiens, A673 or K562 cells, 24 hours treatment; for pIC50: decrease in CJ mRNA; for AC50: increase in AJ mRNA. Put shortly: as §1
A further experiment relates to HTT CJ mRNA. Briefly: Gene panel canonical junction qPCR assay, HTT. To be noted: Homo sapiens, larger gene panel, read-out: HTT IC50 (decrease in CJ mRNA levels). The method, boiled down:
(§2)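 A673 or K562 cells treated 24 h with 11-point 3-fold dilutions (top 10 µM, ≤0.25% DMSO) at 37 °C. Canonical exon-junction mRNA measured by probe-based RT-qPCR, normalized to GAPDH, GUSB or PPIA and DMSO (2^−ΔΔCt), converted to percent response over a fixed ΔCt window; IC50 from 4-parameter fit.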

Another experiment concerns SMN2 CJ mRNA. Briefly: Gene panel canonical junction qPCR assay, SMN2. To be noted: Homo sapiens, larger gene panel, read-out: SMN2 IC50 (decrease in CJ mRNA levels). The method, boiled down: as §2
The next experiment has as its system Target C CJ mRNA. As to the kind of experiment: Gene panel canonical junction qPCR assay, Target C. To be noted: Homo sapiens, larger gene panel, read-out: Target C IC50 (decrease in CJ mRNA levels). The method, boiled down: as §2

pIC50: −log10 of the molar value. Where a name gives a salt, the structure may show the parent alone. Where only a bound is given, the exact number is not on record here.

For the compound `Cc1cn2cc(-c3nn4c(=O)cc(N5CCN(C)C6(CC6)C5)nc4s3)cc(F)c2n1` [Compound 218, 2-(8-fluoro-2-methylimidazo[1,2-a]pyridin-6-yl)-7-(4-methyl-4,7-diazaspiro[2.5]octan-7-yl)-5H-[1,3,4]thiadiazolo[3,2-a]pyrimidin-5-one], the negative-log IC50 (pIC50) with HTT mRNA, in the experiment with MYB mRNA, in the experiment on HTT CJ mRNA, in the experiment with SMN2 CJ mRNA and in the experiment with Target C CJ mRNA was 5.00 to 6.00 in each case. Further, the half-maximal activity concentration (AC50) in the experiment on HTT mRNA and in the experiment on MYB mRNA was 1000 to 10000 nM each time.

For `Cn1cc2cc(-n3cnc4nc(N5CCNCC5)sc4c3=O)ccc2n1` [Compound 225, 6-(2-methyl-2H-indazol-5-yl)-2-(piperazin-1-yl)thiazolo[4,5-d]pyrimidin-7(6H)-one], the negative-log IC50 (pIC50) with HTT mRNA, in the experiment on MYB mRNA, with HTT CJ mRNA, in the experiment on SMN2 CJ mRNA and in the experiment on Target C CJ mRNA was below 5.00 in each case. Also, the concentration at half-maximal activity (AC50) in the experiment with HTT mRNA and in the experiment with MYB mRNA was above 10000 nM throughout.

On to `Cc1cn2cc(-n3cnc4nc(N5CCNCC5)sc4c3=O)cc(F)c2n1` [Compound 226, 6-(8-fluoro-2-methylimidazo[1,2-a]pyridin-6-yl)-2-(piperazin-1-yl)thiazolo[4,5-d]pyrimidin-7(6H)-one], for which the pIC50 with HTT mRNA, in the experiment on MYB mRNA, with HTT CJ mRNA, in the experiment with SMN2 CJ mRNA and in the experiment on Target C CJ mRNA was 6.00 to 7.00 each time. Also, the AC50 with HTT mRNA and in the experiment with MYB mRNA was 100 to 1000 nM throughout.

On to `Cc1cn2cc(-n3cnc4nc(N(C)C5CC(C)(C)NC(C)(C)C5)sc4c3=O)cc(F)c2n1` [Compound 227, 6-(8-fluoro-2-methylimidazo[1,2-a]pyridin-6-yl)-2-(methyl(2,2,6,6-tetramethylpiperidin-4-yl)amino)thiazolo[4,5-d]pyrimidin-7(6H)-one, formate], for which the pIC50 in the experiment on HTT mRNA, in the experiment with MYB mRNA, in the experiment with HTT CJ mRNA, in the experiment on SMN2 CJ mRNA and in the experiment with Target C CJ mRNA was below 5.00 in each case. Further, the half-maximal activity concentration (AC50) in the experiment with HTT mRNA and with MYB mRNA was above 10000 nM in each case.

As for `Cc1cn2cc(-n3cnc4nc(N5CCN(C)CC5)sc4c3=O)cc(F)c2n1` [Compound 228, 6-(8-fluoro-2-methylimidazo[1,2-a]pyridin-6-yl)-2-(4-methylpiperazin-1-yl)thiazolo[4,5-d]pyrimidin-7(6H)-one], the negative logarithm of the IC50 (pIC50) in the experiment with HTT mRNA, in the experiment with MYB mRNA, in the experiment with HTT CJ mRNA, in the experiment with SMN2 CJ mRNA and in the experiment with Target C CJ mRNA was 5.00 to 6.00 each time. Besides, the AC50 in the experiment with HTT mRNA and in the experiment with MYB mRNA was 1000 to 10000 nM throughout.

As to `Cc1cn2cc(-n3cnc4nc(N5CCNCC5)sc4c3=O)cc(C(F)(F)F)c2n1` [Compound 229, 6-(2-methyl-8-(trifluoromethyl)imidazo[1,2-a]pyridin-6-yl)-2-(piperazin-1-yl)thiazolo[4,5-d]pyrimidin-7(6H)-one], the negative logarithm of the IC50 (pIC50) in the experiment with HTT mRNA, in the experiment on MYB mRNA, in the experiment with HTT CJ mRNA, with SMN2 CJ mRNA and with Target C CJ mRNA was below 5.00 each time. Also, the AC50 in the experiment on HTT mRNA and in the experiment with MYB mRNA was above 10000 nM in each case.

For the compound `Cc1cn2cc(-n3cnc4nc(N5CCN(C)CC5)sc4c3=O)cc(C(F)(F)F)c2n1` [Compound 230, 6-(2-methyl-8-(trifluoromethyl)imidazo[1,2-a]pyridin-6-yl)-2-(4-methylpiperazin-1-yl)thiazolo[4,5-d]pyrimidin-7(6H)-one], the pIC50 in the experiment on HTT mRNA is below 5.00; in the experiment on MYB mRNA, 6.00 to 7.00; with HTT CJ mRNA, below 5.00; with SMN2 CJ mRNA, below 5.00; in the experiment with Target C CJ mRNA, below 5.00. The AC50 is above 10000 nM in the experiment on HTT mRNA and 100 to 1000 nM in the experiment with MYB mRNA.

`Cc1cn2nc(-c3nc4ncn(C5CCNCC5)c(=O)c4s3)cc(C)c2n1` [Compound 231, 2-(2,8-dimethylimidazo[1,2-b]pyridazin-6-yl)-6-(piperidin-4-yl)thiazolo[4,5-d]pyrimidin-7(6H)-one]: the pIC50 with HTT mRNA was 6.00 to 7.00; in the experiment with MYB mRNA it was 6.00 to 7.00; with HTT CJ mRNA, 6.00 to 7.00; in the experiment with SMN2 CJ mRNA it was 5.00 to 6.00; with Target C CJ mRNA it was 5.00 to 6.00. The half-maximal activity concentration (AC50) in the experiment with HTT mRNA and with MYB mRNA was 100 to 1000 nM throughout.

Turning to `Cc1cn2cc(-c3nc4ncn(C5CCNCC5)c(=O)c4s3)cc(F)c2n1` [Compound 232, 2-(8-fluoro-2-methylimidazo[1,2-a]pyridin-6-yl)-6-(piperidin-4-yl)thiazolo[4,5-d]pyrimidin-7(6H)-one], the pIC50 with HTT mRNA was above 7.00; in the experiment with MYB mRNA, 6.00 to 7.00; in the experiment with HTT CJ mRNA, above 7.00; in the experiment with SMN2 CJ mRNA, above 7.00; with Target C CJ mRNA it was 6.00 to 7.00. The half-maximal activity concentration (AC50) in the experiment on HTT mRNA is below 100 nM; with MYB mRNA, 100 to 1000 nM.

`Cc1cc(-c2nc3ncn(C4CCNCC4)c(=O)c3s2)cc2cn(C)nc12` [Compound 233, 2-(2,7-dimethyl-2H-indazol-5-yl)-6-(piperidin-4-yl)thiazolo[4,5-d]pyrimidin-7(6H)-one]: the negative logarithm of the IC50 (pIC50) with HTT mRNA is above 7.00; in the experiment with MYB mRNA it was 6.00 to 7.00; with HTT CJ mRNA, above 7.00; in the experiment on SMN2 CJ mRNA, above 7.00; in the experiment on Target C CJ mRNA it was 6.00 to 7.00. In addition, the AC50 with HTT mRNA and in the experiment on MYB mRNA was below 100 nM throughout.

On to `Cc1cc(-c2nc3ncn(C4CCN(C)CC4)c(=O)c3s2)cc2cn(C)nc12` [Compound 234, 2-(2,7-dimethyl-2H-indazol-5-yl)-6-(1-methylpiperidin-4-yl)thiazolo[4,5-d]pyrimidin-7(6H)-one], for which the negative-log IC50 (pIC50) was 6.00 to 7.00 in the experiment on HTT mRNA; 6.00 to 7.00 in the experiment with MYB mRNA; 6.00 to 7.00 in the experiment with HTT CJ mRNA; above 7.00 in the experiment with SMN2 CJ mRNA; 5.00 to 6.00 with Target C CJ mRNA. In addition, the results for the AC50 in the experiment on HTT mRNA and in the experiment with MYB mRNA were 100 to 1000 nM and below 100 nM, respectively.

As to `Cc1cn2cc(-c3cc4ncn(C5CCNCC5)c(=O)c4s3)cc(F)c2n1` [Compound 235, 6-(8-fluoro-2-methylimidazo[1,2-a]pyridin-6-yl)-3-(piperidin-4-yl)thieno[3,2-d]pyrimidin-4(3H)-one], the negative-log IC50 (pIC50) was above 7.00 with HTT mRNA; 6.00 to 7.00 in the experiment on MYB mRNA; above 7.00 in the experiment with HTT CJ mRNA; above 7.00 with SMN2 CJ mRNA; 6.00 to 7.00 in the experiment on Target C CJ mRNA. The AC50 is below 100 nM with HTT mRNA and 100 to 1000 nM in the experiment with MYB mRNA.

For the compound `Cc1cc(-c2cc3ncn(C4CCNCC4)c(=O)c3s2)cc2cn(C)nc12` [Compound 236, 6-(2,7-dimethyl-2H-indazol-5-yl)-3-(piperidin-4-yl)thieno[3,2-d]pyrimidin-4(3H)-one], the pIC50 is above 7.00 in the experiment on HTT mRNA; 6.00 to 7.00 in the experiment on MYB mRNA; above 7.00 in the experiment on HTT CJ mRNA; above 7.00 with SMN2 CJ mRNA; 6.00 to 7.00 in the experiment with Target C CJ mRNA. Further, the half-maximal activity concentration (AC50) in the experiment on HTT mRNA and with MYB mRNA was 100 to 1000 nM in each case.

`Cc1cc(-c2cc3ncn(C4CCN(C)CC4)c(=O)c3s2)cc2cn(C)nc12` [Compound 237, 6-(2,7-dimethyl-2H-indazol-5-yl)-3-(1-methylpiperidin-4-yl)thieno[3,2-d]pyrimidin-4(3H)-one]: the negative logarithm of the IC50 (pIC50) is 6.00 to 7.00 in the experiment on HTT mRNA; 6.00 to 7.00 in the experiment with MYB mRNA; 6.00 to 7.00 in the experiment on HTT CJ mRNA; above 7.00 in the experiment with SMN2 CJ mRNA; 5.00 to 6.00 in the experiment with Target C CJ mRNA. In addition, the AC50 in the experiment on HTT mRNA was 100 to 1000 nM; with MYB mRNA it was below 100 nM.

With `Cc1cn2nc(-c3cc4ncn(C5CCNCC5)c(=O)c4s3)cc(C)c2n1` [Compound 238, 6-(2,8-dimethylimidazo[1,2-b]pyridazin-6-yl)-3-(piperidin-4-yl)thieno[3,2-d]pyrimidin-4(3H)-one], the negative logarithm of the IC50 (pIC50) was 6.00 to 7.00 in the experiment with HTT mRNA; 6.00 to 7.00 in the experiment with MYB mRNA; 6.00 to 7.00 in the experiment with HTT CJ mRNA; above 7.00 with SMN2 CJ mRNA; 5.00 to 6.00 in the experiment with Target C CJ mRNA. The half-maximal activity concentration (AC50) with HTT mRNA and in the experiment with MYB mRNA was 100 to 1000 nM in each case.

In the case of `Cc1cn2nc(-c3cc4ncn(C5CCN(C)CC5)c(=O)c4s3)cc(C)c2n1` [Compound 239, 6-(2,8-dimethylimidazo[1,2-b]pyridazin-6-yl)-3-(1-methylpiperidin-4-yl)thieno[3,2-d]pyrimidin-4(3H)-one], the negative-log IC50 (pIC50) in the experiment on HTT mRNA was 5.00 to 6.00; in the experiment on MYB mRNA it was 5.00 to 6.00; in the experiment on HTT CJ mRNA it was 5.00 to 6.00; in the experiment on SMN2 CJ mRNA it was above 7.00; in the experiment with Target C CJ mRNA, below 5.00. The AC50 fell in the range of 1000 to 10000 nM with HTT mRNA and 100 to 1000 nM in the experiment on MYB mRNA.

Turning to `Cc1cn2cc(-c3nc4sc(C5CCNCC5)cc4c(=O)[nH]3)cc(F)c2n1` [Compound 250, 2-(8-fluoro-2-methylimidazo[1,2-a]pyridin-6-yl)-6-(piperidin-4-yl)thieno[2,3-d]pyrimidin-4(3H)-one], the negative-log IC50 (pIC50) in the experiment on HTT mRNA, in the experiment on MYB mRNA, in the experiment with HTT CJ mRNA, in the experiment with SMN2 CJ mRNA and in the experiment on Target C CJ mRNA was 6.00 to 7.00 each time. Also, the AC50 in the experiment on HTT mRNA and with MYB mRNA was 100 to 1000 nM in each case.

One may read the pIC50 as the IC50 on a negative log10 scale, so that one unit is a factor of ten. As a reminder, the AC50 is the concentration giving half of the maximal activity seen. Read a low AC50 as activity at low concentration.

The record behind these values is US20240366612A1, “COMPOUNDS AND METHODS FOR MODULATING NUCLEIC ACID SPLICING” (REMIX THERAPEUTICS INC., priority 2021, published 2024).
